# Laboratory results as given in ChEMBL document CHEMBL4665541, “Search for new therapeutic options for the uncommon pathogen Mycobacterium chimaera: an open drug discovery approach” (Lancet Microbe, 2021).
# Legend:
# Format in all cases: functional, organism-based
# Parameters in all cases: conc 20 uM
# [1] = system: Mycobacteroides abscessus; test: (§1) Inhibition of mycobacterial growth using the resazurin microtitre cell viability assay (REMA), compounds at final concentration of 20 µM (2% v/v DMSO). Hits were classed as compounds that inhibited bacterial growth by 70% or more compared to drug-free controls.; conditions: ATCC19977
# [2] = system: Mycobacterium tuberculosis; test: as §1; conditions: H37Rv
# [3] = system: Mycobacterium intracellulare subsp. chimaera; test: as §1; conditions: NCTC13781
Substance,Survival [1],Survival [2],Survival [3]
MMV000907,111%,97.1%,98.3%
MMV676008,123%,99.7%,116%
MMV659004,112%,6.84%,100%
MMV011765,108%,89.2%,70.9%
MMV688364,111%,82.7%,89.9%
MMV032967,104%,92.6%,87.8%
MMV671636,112%,95.9%,85.9%
MMV688371,119%,111%,107%
MMV019790,107%,90.2%,102%
MMV688471,109%,87.8%,98.6%
MMV688554,115%,76%,102%
MMV687765,116%,26.4%,59%
MMV676470,115%,90.7%,100%
MMV002529,120%,92%,99.8%
MMV688273,100%,97.8%,106%
MMV676599,115%,88.2%,102%
MMV202553,109%,83.4%,100%
MMV688934,112%,101%,104%
MMV687248,110%,31.8%,110%
MMV001561,103%,91.3%,103%
MMV688936,106%,82.6%,98.9%
MMV676492,101%,83.1%,97.8%
MMV023227,106%,85.3%,87.2%
MMV676449,102%,90.2%,84.8%
MMV676053,97.1%,89.4%,105%
MMV676501,104%,14%,91.8%
MMV676383,110%,1.2%,79.3%

Substance,Survival [1],Survival [2],Survival [3]
MMV688372,104%,88.8%,112%
MMV689709,114%,97.3%,91.7%
MMV553002,113%,34.8%,66.4%
MMV688552,107%,81%,103%
MMV676474,99%,60.1%,88.6%
MMV1198433,98.6%,105%,112%
MMV687170,114%,52.7%,89.9%
MMV676161,114%,80.2%,103%
MMV688771,98.2%,91.4%,91.7%
MMV085071,110%,93.5%,86.4%
MMV023953,104%,100%,93.7%
MMV020982,124%,84.3%,103%
MMV011229,97.3%,92.6%,94%
MMV1028806,116%,26.7%,100%
MMV676571,115%,59.4%,100%
MMV688761,113%,108%,108%
MMV000858,113%,105%,118%
MMV676186,105%,94.5%,98.8%
MMV021057,126%,96.6%,110%
MMV022029,118%,90.8%,99.1%
MMV676064,117%,96.8%,102%
MMV687700,107%,84.1%,88%
MMV611037,106%,92.7%,105%
MMV675994,105%,81.9%,108%
MMV1030799,121%,18.8%,99.7%
MMV006741,111%,85.7%,96.4%
MMV687803,24.5%,17.4%,10.8%

Substance,Survival [1],Survival [2],Survival [3]
MMV020520,125%,104%,113%
MMV663250,104%,95.4%,116%
MMV004168,114%,90.2%,99.7%
MMV676431,115%,81.5%,98.6%
MMV085230,118%,93.7%,111%
MMV676881,99.4%,98.9%,101%
MMV688773,122%,82.8%,94.7%
MMV675969,93.7%,95.8%,107%
MMV688509,119%,91.6%,110%
MMV676162,117%,93.3%,112%
MMV688313,94.8%,102%,104%
MMV010764,101%,88.8%,94.1%
MMV461553,103%,42.2%,7.21%
MMV688466,115%,93.2%,106%
MMV687730,18.8%,71.2%,87.3%
MMV687747,108%,63.6%,90.2%
MMV000016,99.9%,127%,110%
MMV026356,107%,101%,89.7%
MMV676182,102%,91.4%,104%
MMV676877,107%,90.2%,106%
MMV010576,112%,106%,99%
MMV688360,100%,100%,94.3%
MMV020537,105%,94.1%,62.7%
MMV393995,93.9%,46.2%,95.8%
MMV001059,105%,89.4%,106%
MMV1236379,110%,96%,98.4%
